Test results: publication PMC4790851, “Iminosugars Inhibit Dengue Virus Production via Inhibition of ER Alpha-Glucosidases—Not Glycolipid Processing Enzymes” (PLoS Neglected Tropical Diseases, 2016)
Entries after “also recorded” stand apart in the source; their conditions may differ.

Key:
DENV = test system: DENV; set-up: method as in PMID 22020302; conditions: BHK-21 (hamster kidney) cell culture model; cited from earlier work
DENV2 D2S10 = test: Lethal mouse model of antibody-enhanced DENV infection; assay type: in vivo, AG129 mice; conditions: 33.3 mg/kg/dose t.i.d. p.o.
Experimental: Virus titers of samples isolated from infected mice were obtained by BHK-21 plaque assays in accordance with previous protocols. BHK-21 cells were seeded in 12-well plates (3 x 10^5 cells/well) in α-MEM medium containing 5% HI-FBS for 3 hours (37°C, 5% CO2). Medium was removed, log10 serial dilutions of virus in α-MEM with 2% HI-FBS were added, and cells were incubated for an additional 2 hours (37°C, 5% CO2). Following incubation, 1.5 ml of α-MEM containing 5% (v/v) HI-FBS and 1% (w/v) low-melting point tissue culture grade agarose (Sigma) was added to each well and allowed to solidify at room temperature before further incubation (37°C, 5% CO2) for 5 days. Plaques were visualised after fixation in 10% formaldehyde (1 hour, room temperature) and removal of the agarose plug by staining briefly (approximately 30 seconds) with 1% (w/v) crystal violet (Sigma) in 20% (v/v) ethanol (EtOH, Sigma). Concentrations were normalised to tissue mass (in grams) or serum volume (in ml) as appropriate.
For animal experiments, multiplex qRT-PCR was conducted on all tissue isolates and plasma as described for in vitro experiments. Rodent glyceraldehyde 3-phosphate dehydrogenase (GAPDH) control (Life Technologies #4308313) containing a VIC reporter dye was attached to a TAMRA (tetramethylrhodamine) quencher, and experimental DENV NS5-specific target was labelled with FAM (6-fluorescein amidite) reporter dyes with a TAMRA quencher. GAPDH primers were used at 10 μM and probe at 20 μM. In the case of DENV qRT-PCR, quantitation using a DENV2-specific primer/probe set directed to NS5 was conducted using all primers and probe at 10 μM final concentration. Thermocycling was conducted as for in vitro experiments. Viral RNA from tissues was quantified by ΔΔCt method, whereas plasma samples were quantified relative to a standard curve as for in vitro experiments. Samples were read in technical duplicate and 95% confidence intervals were determined based on biological and technical variation and graphed using Prism 6 (GraphPad Software, Inc.).
All experimental procedures were pre-approved by the UC Berkeley Animal Care and Use Committee and were performed according to the guidelines of the UC Berkeley Animal Care and Use Committee, the United States Public Health Service, and the USDA Animal Welfare Act. Mice of the 129/Sv background deficient in interferon (IFN)-α/β and -γ receptors (AG129 mice) were infected with DENV under antibody-enhanced conditions as previously described. Mice were primed 24 hours prior to infection with a 5 μg intraperitoneal (i.p.) injection of a pan-flavivirus monoclonal antibody against E protein, 4G2. At t = 0, 10^5 pfu of DENV2 D2S10 was injected intravenously. […]

dengue infection = test system: dengue infection; set-up: method as in PMID 24877997, PMID 12355369; conditions: oral, 400 mg loading dose then 200 mg/dose b.i.d.; cited from earlier work
[1] = serum at 80 h post-infection, AG129 mice, listed as celgosivir

CCCC(=O)O[C@H]1CN2CC[C@H](O)[C@@H]2[C@@H](O)[C@@H]1O [Celgosivir, 6-O-butanoyl-castanospermine]
enhancement of antiviral efficacy over castanospermine (DENV): ~ 100 fold
viral RNA levels in spleen (DENV2 D2S10; 80 h post-infection, qRT-PCR normalized to GAPDH): enhanced viral RNA levels by approximately two orders of magnitude
infectious virus level in serum (BHK-21 plaque assay) (DENV2 D2S10; serum at 80 h post-infection, AG129 mice): reduced the average viral titer, but the differences were not statistically significant
circulating viral load (viral RNA, qRT-PCR) (DENV2 D2S10; [1]): significantly reduced; also recorded: statistically significant reduction in viral RNA load
infectious virus level in serum (BHK-21 plaque assay) (DENV2 D2S10; [1]): not statistically significant
reduction in viral load or fever burden in patients (dengue infection): failed to demonstrate reduction in viral load or fever burden
